Test results from patent publication US8975246B2, “Bile acid or bile salt fatty acid conjugates” (Galmed Research and Development Ltd., priority 2001, dated 2015).

Test system: Inbred C57J/L mice
Experiment: Liver lipid/protein ratio, mice on high fat lithogenic diet
Type: in vivo
Settings: BAFAC 150 mg/Kg daily by gavage, 5 weeks
Description: Inbred C57J/L mice, 4 weeks old and weighing approx. 20 gm (Jackson Lab. Maine, USA) were used. They were fed for 5 weeks a high fat lithogenic diet consisting of: Cholesterol 1%, Cholic Acid 0.5%, lard 10%, butter 6%, palmitic acid 1.2% and corn oil 2% added (w/w) to their regular diet. In addition to the diet the animals were given daily, by gavage, either a BAFAC (150 mg/Kg) suspended in saline or an equal volume of saline only. The BAFACs were conjugates of cholic acid (at position 3) with either Palmitic Acid (C-16) or Arachidic Acid (C-20) or Behenic Acid (C-22) using an amide bond. The controls (n=5) received saline, the test animals received either the C-16 conjugate (n=5), the C-20 conjugate (n=5) or the C-22 conjugate (n=3). After 5 weeks, following an overnight fast, the animals were anesthetized using ketamine, the liver was removed, and the animals were sacrificed by ketamine overdose. A 0.5 gm sample of liver was homogenized in 5 ml of buffered saline. Liver lipids were extracted from the homogenate by the Folch method using chloroform:methanol (2:1, vol/vol). Half a ml of the homogenate were extracted in 5 ml of the Folch solution. After evaporation of the solvent the lipids were weighed and reevaporated several times until constant weight was obtained. The proteins were quantified in another aliquot of the homogenate according to the method of Bradford. (Bradford M. M., Annal Biochem. 1976, 72:248).
The lipid protein ratio (mg/mg) was calculated. The results for each group are given as means (+St. Dev.) The group values were: […]

| Compound | lipid protein ratio in liver, mean (+St. Dev.) |
| --- | --- |
| CCCCCCCCCCCCCCCC(=O)NC1CCC2(C)C(C1)CC(O)C1C2CC(O)C2(C)C(C(C)CCC(=O)O)CCC12 (centres unmarked) [C-16 BAFAC] | 2.25 ± 1.20 mg/mg |
| CCCCCCCCCCCCCCCCCCCCCC(=O)NC1CCC2(C)C(C1)CC(O)C1C2CC(O)C2(C)C(C(C)CCC(=O)O)CCC12 (centres unmarked) [C-22 BAFAC] | 3.00 ± 1.08 mg/mg |
